For orientation: CC50 means the concentration that lowers cell viability or growth by half. The EC50 is the concentration needed to bring the measured effect to its halfway point. Broadly, the EC90 is the concentration needed for an effect of 90%.

Structures are written as SMILES. Where two headings read alike, the source gives them in different places.

In series [1] the test system is HIV-1. As to conditions: for EC50: HIV infected human PBMCs.
Procedure: (§1) Antiviral activities were determined in HIV infected human PBMCs.
A short description of series [2]: Cytotoxicity (CC50) in human PBMCs. The class given is cell-based. The settings on record: human PBMCs.
Series [3] deals with HIV-1. In words: microbe, parasite or virus in culture. As to conditions: Human immunodeficiency virus 1, PBMC.
Procedure: as §1
A further series has as its system human PBMCs. In words: Cytotoxicity (CC50) in human PBMCs. The series is classed as cell-based.
A further series relates to HFF cells. Description: Persistence of TFVpp in HFF cells after a 3 day exposure. An excerpt:
HFF cells were exposed to 1 micromolar drug for 3 days. At days 0, 1, 2, 4, 7, 14, 21, and 28, cells were trypsinized, counted, and processed for LC/MS measurement of TFVpp. Data were expressed at ftg/cell. nm=not meaningful; ftg—gemtogram.

In series [4] the test system is SARS-CoV-2. Description: SARS-CoV-2 infection assay in TMPRSS2-Vero cells, nucleocapsid immunofluorescence (Example 6). The class given is cell-based. The settings on record: MOI 0.01, 32 hours.
The next series concerns HCoV-229E. The class given is cell-based, human Coronavirus 229E.
For another series, the system named is Hep-2 cells. In words: Cell viability assay for the RSV table (CC50). The series is classed as cell-based. The settings on record: Hep-2 cells; read-out: CC50.
A further series has as its system Huh7.5 cells. In words: Cytotoxicity in Huh7.5 cells, nuclei count (Example 6). The class given is cell-based, human. The settings on record: Huh7.5 cells; read-out: CC50.
The subject of a further series is TMPRSS2-Vero cells. Description: Cytotoxicity in TMPRSS2-Vero cells, nuclei count (Example 6). The series is classed as cell-based. As to conditions: TMPRSS2-Vero cells; read-out: CC50.
The subject of series [5] is SARS-CoV-2. In words: SARS-CoV-2 infection assay in Huh7.5 cells, nucleocapsid immunofluorescence (Example 6). The series is classed as cell-based. The settings on record: MOI 0.1, 48 hours.
In the next series the test system is SRV A2 strain of RSV. In words: RSV infection in Hep-2 cells, CPE reduction. The class given is cell-based, respiratory syncytial virus. As to conditions: RSV A2 in Hep-2 cells, 72 to 96 hours. How it is done:
Methods: The SRV A2 strain of RSV was obtained from the ATCC. Ten thousand Hep-2 cells were seeded into each well of a 96-well plate in EMEM with 10% fetal bovine serum and 1% penicillin and streptomycin. Each well was inoculated with 100 TCID50 of virus. Two hours later wells were washed once with medium and serial four-fold dilutions of candidate antiviral drugs were added.

Another series deals with Calu-3 cells. In words: Cytotoxicity in Calu-3 cells, nuclei count or CellTiter-Glo (Example 6). As to conditions: for select compounds up to 100 μM by CellTiter-Glo. In general terms: ATP-based viability assays read luminescence as a measure of living cells.
For series [6], the system named is SARS-CoV-2. Description: SARS-CoV-2 infection assay in Calu-3 cells, nucleocapsid immunofluorescence (Example 6). As to conditions: MOI 0.01, 44 hour.
For the next series, the system named is Huh7.5. Description: Antiviral evaluation of cyanobenzyl analogs, Huh7.5. The class given is cell-based.
The subject of a further series is Calu 3. In words: Antiviral evaluation of cyanobenzyl analogs, Calu 3. The class given is cell-based. As to conditions: Calu 3.
The mark [7] stands for this setting: variation of the diester substituent of ODE-TFV.
Where [8] appears, read: variation of the diester substituent of ODE-TFV, read-out: CC50.
The mark [9] stands for this setting: HFF cells, 1 micromolar drug for 3 days.

Regarding `CCCCCCCCCCCCCCCCCCOCCOP(=O)(CO[C@H](C)Cn1cnc2c(N)ncnc21)OCc1ccccc1` (some centres unmarked) [ODE-Bn-TFV, Octadecyloxyethyl benzyl tenofovir], the Selectivity Index in the series with HIV-1 [1] (CC50/EC50) was 5130. In series [2], this molecule returned a CC50 of 8720 nM. This molecule also displayed an EC50 in the series on HIV-1 [3] of 1.7 ± 1.5 nM.
For `CCCCCCCCCCCCCCCCCCOCCOP(=O)(CO[C@H](C)Cn1cnc2c(N)ncnc21)OCc1cccc(C)c1` (some centres unmarked) [3-methyl benzyl], in the series with HIV-1 [1] (setting [7]), the “Selectivity Index” value is recorded as 1210 and the EC50 turned out to be 3.2 nM. The CC50 in the series with human PBMCs (setting [8]) is 3860 nM.
For the molecule `CCCCCCCCCCCCCCCCCCOCCOP(=O)(CO[C@H](C)Cn1cnc2c(N)ncnc21)OCC` (some centres unmarked) [ODE-Et-TFV], in the series with HIV-1 [1] (setting [7]), the “Selectivity Index” value is given as 95 and the EC50 is 57 nM. For the same molecule, the CC50 with human PBMCs (setting [8]) was determined as 5360 nM. Further, in the series on HFF cells (setting [9]), the “Cmax of TFVpp” value is recorded as 0.91 ftg/cell and the “Tmax of TFVpp” value came out at 0 h.
With `CCCCCCCCCCCCCCCCCCOCCOP(=O)(O)CO[C@H](C)Cn1cnc2c(N)nc(N)nc21` [ODE-PMPDAP], the Selectivity Index in the series on HIV-1 [1] (CC50/EC50) is 77,700. Also, the midpoint of the response in the series with HIV-1 [1], the EC50, lay at 0.09 ± 0.05 nM. The CC50 in the series on human PBMCs (human PBMCs, read-out: CC50) is 7000 ± 7100 nM.
Turning to `CCCCCCCCCCCCCCCCCCOC[C@H](COP(=O)(O)OC[C@H]1O[C@@](C#N)(c2ccc3c(N)ncnn23)[C@H](O)[C@@H]1O)OCc1ccc(OC)c(F)c1` [Compound 15j, 1-O-Octadecyl-2-O-(3-fluoro-4-methoxy-benzyl)-sn-glyceryl-phospho-RVn], the EC50 with SARS-CoV-2 [4] amounted to 174 nM; in the series on HCoV-229E, 74 ± 10 nM; in the series on SARS-CoV-2 [5], 56 nM; in the series with SRV A2 strain of RSV it was 10 nM. Also, the EC90 with SARS-CoV-2 [4] was 341 nM; with HCoV-229E, 170 ± 14 nM; in the series on SARS-CoV-2 [5], 222 nM; with SRV A2 strain of RSV, 19 nM. Further, the CC50 with Hep-2 cells is 9600 nM; in the series on Huh7.5 cells it was more than 20000 nM; in the series with TMPRSS2-Vero cells it was more than 20000 nM; in the series with Calu-3 cells, 50600 ± 5420 nM; in the series on MRC-5 cells it was more than 50000 nM.
On to `CCCCCCCCCCCCCCCCCCOCCOP(=O)(O)OC[C@H]1O[C@@H](n2cc(F)c(N)nc2=O)CS1` [ODE-P-Emtricitabine, Octadecyloxyethyl-phospho-emtricitabine], for which the Selectivity Index with HIV-1 [1] (CC50/EC50) is 3708. In addition, in series [2], the CC50 came to 35600 ± 12900 nM. Also, in the series on HIV-1 [3], the midpoint of the response, the EC50, lay at 9.6 ± 3.1 nM.
In the case of `CCCCCCCC/C=C\CCCCCCCCOC[C@H](COP(=O)(O)OC[C@H]1O[C@@](C#N)(c2ccc3c(N)ncnn23)[C@H](O)[C@@H]1O)OCc1ccc(OC)c(F)c1` [Compound 15m, 1-O-Oleyl-2-O-(3-fluoro, 4-methoxybenzyl)-sn-glyceryl-phospho-RVn], the EC50 was 296 nM with SARS-CoV-2 [4], 60 ± 14 nM with HCoV-229E, 54 nM in the series with SARS-CoV-2 [5] and 5 nM in the series on SRV A2 strain of RSV. In addition, the EC90 in the series on SARS-CoV-2 [4] stood at 524 nM; with HCoV-229E it was 110 ± 20 nM; with SARS-CoV-2 [5], 102 nM; in the series with SRV A2 strain of RSV it was 9.4 nM. Further, the CC50 in the series on Hep-2 cells was 12500 nM; in the series on Huh7.5 cells, more than 20000 nM; in the series with TMPRSS2-Vero cells it was more than 20000 nM; with Calu-3 cells, 58500 ± 6280 nM; with MRC-5 cells it was more than 50000 nM.
`CCCCCCCCCCCCCCCCCCOCCOP(=O)(CO[C@H](C)Cn1cnc2c(N)ncnc21)Oc1ccccc1` (some centres unmarked) [ODE-Ph-TFV]: in the series with HIV-1 [1] (setting [7]), the “Selectivity Index” value is reported as 1640 and the EC50 is 2.4 nM. For the same molecule, the CC50 in the series with human PBMCs (setting [8]) came to 3930 nM. For the same molecule, in the series on HFF cells (setting [9]), the “Cmax of TFVpp” value turned out to be 8.1 ftg/cell, the “T1/2 of TFVpp” value was found to be 3.0, the “T1/10 of TFVpp” value stood at 15.1 and the “Tmax of TFVpp” value was found to be 24 h.
Regarding `CCCCCCCC/C=C\CCCCCCCCOCCOP(=O)(O)CO[C@H](C)Cn1cnc2c(N)nc(N)nc21` [OLE-PMPDAP, Oleyloxyethyl 9-(R)-[(2-phosphonomethoxy)propyl]-2,6-diaminopurine], in the series with HIV-1 [1] (CC50/EC50), the Selectivity Index is 150,000. Moreover, in series [2], the CC50 is 15000 ± 12300 nM. This molecule gave an EC50 in the series on HIV-1 [3] of 0.1 ± 0.03 nM.
For `CCCCCCCCCCCCCCCCOC[C@H](COP(=O)(O)OC[C@H]1O[C@@](C#N)(c2ccc3c(N)ncnn23)[C@H](O)[C@@H]1O)OCc1ccc(OC)c(F)c1` [Compound 15c, 1-O-Hexadecyl-2-O-(3-fluoro, 4-methoxybenzyl)-sn-glyceryl-phospho-RVn], the EC50 was found to be 51 ± 6 nM in the series on SARS-CoV-2 [6]; 397 nM in the series with SARS-CoV-2 [4]; 360 ± 54 nM with HCoV-229E; 49 nM with SARS-CoV-2 [5]; 34 nM in the series on SRV A2 strain of RSV. The 90% effect concentration (EC90) is 221 ± 58 nM with SARS-CoV-2 [6]; 869 nM in the series with SARS-CoV-2 [4]; 1120 ± 100 nM in the series with HCoV-229E; 113 nM in the series on SARS-CoV-2 [5]; 68 nM with SRV A2 strain of RSV. Besides, the CC50 was 20600 nM in the series with Hep-2 cells; more than 20000 nM in the series on Huh7.5 cells; more than 20000 nM in the series on TMPRSS2-Vero cells; 75600 ± 3960 nM with Calu-3 cells; more than 50000 nM in the series on MRC-5 cells.
As to `CCCCCCCCCCCCCCCCCCOCCOP(=O)(CO[C@H](C)Cn1cnc2c(N)ncnc21)OCc1ccc(C)cc1` (some centres unmarked) [ODE-4MeBN-TFV], in the series with HIV-1 [1] (setting [7]), the “Selectivity Index” value is on record as 1620 and the response was half-maximal at 2.1 nM (EC50). In the series with human PBMCs, this molecule returned a CC50 of 3410 nM. Moreover, in the series with HFF cells, the “T1/2 of TFVpp” value is on record as 3.1 and the “Tmax of TFVpp” value was found to be 0 h.
With `CCCCCCCCCCCCCCCCCCOCCOP(=O)(CO[C@H](C)Cn1cnc2c(N)ncnc21)OC` (some centres unmarked) [ODE-Me-TFV], in the series with HIV-1 [1] (setting [7]), the “Selectivity Index” value amounted to 677 and the EC50 is 5.2 nM. The CC50 in the series with human PBMCs (setting [8]) stood at 2980 nM. Moreover, in the series on HFF cells (setting [9]), the “Cmax of TFVpp” value stood at 9.3 ftg/cell, the “T1/2 of TFVpp” value turned out to be 2.0, the “T1/10 of TFVpp” value was 11.3 and the “Tmax of TFVpp” value came out at 0 h.
As to `CCCCCCCCCCCCCCCCCCOC[C@H](COP(=O)(O)OC[C@H]1O[C@@](C#N)(c2ccc3c(N)ncnn23)[C@@H](O)C1O)OCc1ccc(C#N)cc1` (some centres unmarked) [OD(4-CN-Bn)G-P-RVn, 1-O-Octadecyl-2-O-(4-cyanobenzyl)-sn-glyceryl-phospho-RVn], the SI in the series with Huh7.5 was determined as 1966; in the series on Calu 3, 1400. The EC50 was 24 ± 2 nM in the series on Huh7.5 (read-out: EC50) and 43 ± 13 nM with Calu 3 (read-out: EC50). In addition, the EC90 is 70 ± 10 nM with Huh7.5 (read-out: EC90) and 82 ± 22 nM in the series with Calu 3 (read-out: EC90).
Turning to `CCCCCCCCCCCCCCCCCCOCCOP(=O)(OCc1ccccc1)OC[C@H]1O[C@@H](n2cc(F)c(N)nc2=O)CS1` (some centres unmarked) [ODE-Bn-P-Emtricitabine, Octadecyloxyethyl benzyl-phospho-emtricitabine], the Selectivity Index in the series on HIV-1 [1] (CC50/EC50) is on record as 2989. The molecule further registered a CC50 in series [2] of 54700 ± 45300 nM. This molecule returned an EC50 in the series with HIV-1 [3] of 18.3 ± 8.7 nM.

The record behind these values is US12594292B2, “Antiviral prodrugs, intermediate-and long-acting formulations and methods” (priority 2022, dated 2026).
